Data published in PMC6760013, “Synthesis and Inhibition Evaluation of New Benzyltetrahydroprotoberberine Alkaloids Designed as Acetylcholinesterase Inhibitors” (Frontiers in Chemistry, 2019).

Legend:
[1] = target: T1, AChE from Electrophorus electricus (eelAChE) type VI-S (Electrophorus electricus, UniProt O42275); assay: biochemical; settings: for mechanism of inhibition: double-reciprocal (Lineweaver-Burk) plots; for IC50 / Ki: eelAChE-ICER; for IC50: 20 μL ACh stock 500 μM in 100 μL reaction mixture, non-linear regression; for Ki: ACh 10 to 150 μM, inhibitor 0, 10, 50 and 75 μM, Lineweaver-Burk replot, read-out: Ki (steady-state inhibition constant); for inhibition: pH 8, 10 μL of 1.0 mM compound stock in 100 μL reaction mixture, read-out: % Inhibition eelAChE-ICER
T1 construct: purchased Sigma-Aldrich type VI-S
Procedure: AChE from Electrophorus electricus (type VI-S) was immobilized in a fused-silica capillary tube (eelAChE-ICER) according to a previously reported protocol (Vanzolini et al., [2013]). An enzyme solution containing 2 units/mL eelAChE was used in the immobilization procedure. The LC-MS system was set up for the eelAChE-ICER as previously described (Vanzolini et al., [2013]). The mobile phase (15 mM ammonium acetate solution, pH 8.0) was infused by pump 1 at a flow rate of 50 μL/min and pump 2 delivered acetonitrile after the eelAChE-ICER at a flow rate of 50 μL/min. IT-MS parameters were: 3,713 V capillary voltage, 500 V end plate voltage, […] drying gas, 300°C drying temperature and 30 psi nebulizer. In addition, ACh ([M+H]^+ m/z 146) and Ch ([M+H]^+ m/z 104), were analyzed by MS operating in the manual MS^n mode under positive ionization (scan 50–550 m/z). Enzymatic activity was quantified using a Ch standard external calibration curve prepared in 15 mM ammonium acetate solution, pH 8.0 with the final concentration ranging from 5 to 350 μM. An aliquot (10 μL) of each solution was injected in triplicate into the system using an empty fused silica capillary. The calibration curve was obtained by plotting the Ch [M+H]^+ m/z 104 area against the injected Ch concentration.
Stock solutions of each compound were prepared in methanol at 1.0 mM. The enzymatic activity of eelAChE-ICER was measured in the presence and absence of each compound. Reactions mixtures were prepared by mixing 20 μL of ACh stock solution (350 μM, in 15mM ammonium acetate solution, pH 5.0) with 10 μL of methanol or stock solution of compounds (1.0 mM) and 70 μL ammonium acetate solution (15mM, pH 8.0). Each reaction mixture (10 μL) was injected into the LC-MS system. The percentage of inhibition (%I) was calculated by comparing the product peak area in the presence of tested compound with positive control (absence of inhibitors).
Final volumes were completed with 70 μL ammonium acetate solution (15mM, pH 8.0) and each reaction mixture (10 μL) was injected into the LC-MS system. The inhibition curve was obtained for each sample by plotting the percentage of inhibition vs. each corresponding inhibitor concentration, and the IC50 values were achieved by non-linear regression analysis using GraphPad Prism 5 software.
For this purpose, the eelAChE-ICER activity was evaluated under different concentrations of ACh (10 to 150 μM) and at the fixed concentration of derivative 1a and 1b (0, 10, 50, and 75 μM). Lineweaver-Burk plots were used to determine the action mechanism for the inhibitors.
A linear replot was obtained, and the division quotient between the linear and angular coefficients provided the Ki values.

[2] = system: AChE; set-up: method as in Loizzo et al., 2008; settings: AChE inhibition; ref Loizzo et al., 2008; cited from earlier work
[3] = 20 μL ACh stock 350 μM, ammonium acetate 15 mM pH 8.0

T1 sequence (O42275 24-633): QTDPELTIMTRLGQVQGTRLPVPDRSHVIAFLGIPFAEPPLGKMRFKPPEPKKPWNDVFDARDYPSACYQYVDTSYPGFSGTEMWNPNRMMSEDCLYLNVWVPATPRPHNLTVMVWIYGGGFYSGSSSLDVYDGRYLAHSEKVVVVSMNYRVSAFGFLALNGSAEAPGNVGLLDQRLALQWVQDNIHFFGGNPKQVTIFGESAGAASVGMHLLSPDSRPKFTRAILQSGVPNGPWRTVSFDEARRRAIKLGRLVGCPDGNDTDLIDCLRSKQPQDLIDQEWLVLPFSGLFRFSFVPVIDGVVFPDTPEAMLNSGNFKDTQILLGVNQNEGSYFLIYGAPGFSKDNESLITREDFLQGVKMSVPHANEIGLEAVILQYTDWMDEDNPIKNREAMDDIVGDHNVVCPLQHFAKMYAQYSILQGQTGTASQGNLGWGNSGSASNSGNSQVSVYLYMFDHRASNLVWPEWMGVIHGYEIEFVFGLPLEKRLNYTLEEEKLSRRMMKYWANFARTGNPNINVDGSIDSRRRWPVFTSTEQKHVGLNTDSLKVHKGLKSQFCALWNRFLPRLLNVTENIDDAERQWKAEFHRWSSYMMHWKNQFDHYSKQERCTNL

Row | SMILES | inhibition [1, 3] | IC50 [2] | further results
1 | COc1cc2c(cc1O)[C@@H]1Cc3ccc(O)c(OC)c3C[N@+]1(Cc1ccccc1)CC2 [1a, (7R,13aS)-7-benzylstepholidine] | 90.1 ± 2.04% |  | mechanism of inhibition [1]: non-competitive; IC50 [1]: 40.6 ± 1 µM; Ki [1]: 11.6 µM
2 | COc1cc2c(cc1O)[C@@H]1Cc3ccc(O)c(OC)c3C[N@@+]1(Cc1ccccc1)CC2 [1b, (7S,13aS)-7-benzylstepholidine] | 90.5 ± 2.48% |  | mechanism of inhibition [1]: non-competitive; IC50 [1]: 51.9 ± 1 µM; Ki [1]: 4.7 µM
3 | COc1cc2c(cc1OCc1ccccc1)[C@@H]1Cc3ccc(O)c(OC)c3CN1CC2 [1c, (S)-2-O-benzylstepholidine] | 35.2 ± 5.02% |  | 
4 | COc1cc2c(cc1O)[C@@H]1Cc3ccc(OCc4ccccc4)c(OC)c3CN1CC2 [1d, (S)-10-O-benzylstepholidine] | 46.3 ± 5.45% |  | 
5 | COc1cc2c(cc1OCc1ccccc1)[C@@H]1Cc3ccc(OCc4ccccc4)c(OC)c3CN1CC2 [1e, (S)-O, O-dibenzylstepholidine] | 43.6 ± 2.54% |  | 
6 | COc1cc2c(cc1O)C1Cc3ccc(O)c(OC)c3C[N+]1(C)CC2 (stereo not shown) [N-methyl stepholidine] |  | 31.3 µM | 
7 | COc1cc2c(cc1O)[C@@H]1Cc3ccc(O)c(OC)c3CN1CC2 [Stepholidine, stepholidine, reference compound] | < 50% | > 100 µM | % Inhibition eelAChE-ICER ([1]; 10 μL of 1.0 mM compound stock in 100 μL reaction mixture, 20 μL ACh stock 350 μM, ammonium acetate 15 mM pH 8.0): 40.2 ± 1.65%
8 | COc1cc2c(cc1O)-c1cc3ccc(O)c(OC)c3c[n+]1CC2 [stepharanine] |  | 14.1 µM | 
